Results: patent US20230365592A1 (Agios Pharmaceuticals, Inc., priority 2022, published 2023)

molecular target: T1, human PAH with the R408W mutation (Homo sapiens, UniProt P00439, R408W); assay: Cell Based Phenylalanine Flux Assay; conditions: A375 cells expressing human R408W PAH; 24 hrs compound incubation; 13C-Tyrosine by LC-MS; average where tested multiple times; read-out: AC50;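 further: after compound treatment, cells received sepiapterin plus isotope-labelled Phenylalanine for 4 hours, then labelled Tyrosine in the medium was quantified, 10-point 2-fold dilution series run in duplicate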
T1 construct: expressed in transfected cells
T1 sequence (P00439 1-452 R408W): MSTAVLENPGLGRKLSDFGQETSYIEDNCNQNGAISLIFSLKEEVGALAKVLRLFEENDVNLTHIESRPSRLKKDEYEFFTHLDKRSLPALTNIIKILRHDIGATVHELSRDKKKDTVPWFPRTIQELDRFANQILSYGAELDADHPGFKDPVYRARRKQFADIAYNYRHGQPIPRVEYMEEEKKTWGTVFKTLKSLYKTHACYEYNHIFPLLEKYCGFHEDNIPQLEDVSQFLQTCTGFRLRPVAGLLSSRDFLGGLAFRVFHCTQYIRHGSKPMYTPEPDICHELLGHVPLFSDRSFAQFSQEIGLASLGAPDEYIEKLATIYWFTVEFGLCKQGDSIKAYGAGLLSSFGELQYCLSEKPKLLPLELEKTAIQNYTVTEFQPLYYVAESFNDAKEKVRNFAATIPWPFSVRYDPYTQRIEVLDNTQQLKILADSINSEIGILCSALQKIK

Row | AC50 [nM] | Structure (SMILES)
1 | 1000 to 5000 | Cc1cccn2nc([C@H]3c4nc[nH]c4CCN3C(=O)c3nnc(-c4cnn(C)c4C)o3)cc12 [Example 989, (R)-(5-(1,5-dimethyl-1H-pyrazol-4-yl)-1,3,4-oxadiazol-2-yl)(4-(4-methylpyrazolo[1,5-a]pyridin-2-yl)-6,7-dihydro-1H-imidazo[4,5-c]pyridin-5(4H)-yl)methanone]
2 | 500 to 1000 | CC(C)(O)c1nc(Cl)c(C(=O)N2CCc3[nH]cnc3[C@H]2c2cc3ccccn3n2)o1 [Example 990, (S)-(4-chloro-2-(2-hydroxypropan-2-yl)oxazol-5-yl)(4-(pyrazolo[1,5-a]pyridin-2-yl)-6,7-dihydro-1H-imidazo[4,5-c]pyridin-5(4H)-yl)methanone]
3 | 500 to 1000 | Cc1nc(C(C)(C)C#N)oc1C(=O)N1CCc2[nH]cnc2[C@H]1c1cc2ccccn2n1 [Example 992, (S)-2-methyl-2-(4-methyl-5-(4-(pyrazolo[1,5-a]pyridin-2-yl)-4,5,6,7-tetrahydro-1H-imidazo[4,5-c]pyridine-5-carbonyl)oxazol-2-yl)propanenitrile]
4 | < 500 | O=C(c1oc(C2(O)CC2)nc1C(F)F)N1CCc2[nH]cnc2[C@H]1c1cc2ccccn2n1 [Example 994, (S)-(4-(difluoromethyl)-2-(1-hydroxycyclopropyl)oxazol-5-yl)(4-(pyrazolo[1,5-a]pyridin-2-yl)-6,7-dihydro-1H-imidazo[4,5-c]pyridin-5(4H)-yl)methanone]
5 | 500 to 1000 | Cc1nc(C(C)(C)O)oc1C(=O)N1CCc2[nH]cnc2[C@H]1c1cc2c(F)cccn2n1 [Example 1000, (S)-(4-(4-fluoropyrazolo[1,5-a]pyridin-2-yl)-6,7-dihydro-1H-imidazo[4,5-c]pyridin-5(4H)-yl)(2-(2-hydroxypropan-2-yl)-4-methyloxazol-5-yl)methanone]
6 | 500 to 1000 | O=C(c1ocnc1C(F)F)N1CCc2[nH]cnc2[C@@H]1c1cc2c(C(F)(F)F)cccn2n1 [Example 1003, (R)-(4-(difluoromethyl)oxazol-5-yl)(4-(4-(trifluoromethyl)pyrazolo[1,5-a]pyridin-2-yl)-6,7-dihydro-1H-imidazo[4,5-c]pyridin-5(4H)-yl)methanone]
7 | < 500 | Cc1ccn2nc([C@H]3c4nc[nH]c4CCN3C(=O)c3ocnc3C(F)F)cc2c1 [Example 1005, (R)-(4-(difluoromethyl)oxazol-5-yl)(4-(5-methylpyrazolo[1,5-a]pyridin-2-yl)-6,7-dihydro-1H-imidazo[4,5-c]pyridin-5(4H)-yl)methanone]
8 | 500 to 1000 | O=C(c1oc(-c2ccccn2)nc1C(F)F)N1CCc2[nH]cnc2[C@@H]1c1cc2c(F)cccn2n1 [Example 1007, (R)-(4-(difluoromethyl)-2-(pyridin-2-yl)oxazol-5-yl)(4-(4-fluoropyrazolo[1,5-a]pyridin-2-yl)-6,7-dihydro-1H-imidazo[4,5-c]pyridin-5(4H)-yl)methanone]
9 | 500 to 1000 | Cc1cccn2nc([C@H]3c4nc[nH]c4CCN3C(=O)c3oc(-c4cnn(C)c4)nc3C(F)F)cc12 [Example 1009, (R)-(4-(difluoromethyl)-2-(1-methyl-1H-pyrazol-4-yl)oxazol-5-yl)(4-(4-methylpyrazolo[1,5-a]pyridin-2-yl)-6,7-dihydro-1H-imidazo[4,5-c]pyridin-5(4H)-yl)methanone]
10 | 500 to 1000 | Cc1nnc(C(=O)N2CCc3[nH]cnc3[C@H]2c2cc3c(C)cccn3n2)o1 [Example 1010, (S)-(5-methyl-1,3,4-oxadiazol-2-yl)(4-(4-methylpyrazolo[1,5-a]pyridin-2-yl)-6,7-dihydro-1H-imidazo[4,5-c)pyridin-5(4H)-yl)methanone]
11 | 500 to 1000 | Cc1cccn2nc([C@@H]3c4nc[nH]c4CCN3C(=O)c3nnc(N4CCC(F)CC4)o3)cc12 [Example 1012, (S)-(5-(4-fluoropiperidin-1-yl)-1,3,4-oxadiazol-2-yl)(4-(4-methylpyrazolo[1,5-a]pyridin-2-yl)-6,7-dihydro-1H-imidazo[4,5-c]pyridin-5(4H)-yl)methanone]
12 | > 5000 | Cc1cccn2nc([C@H]3c4nc[nH]c4CCN3C(=O)c3nnc(N4CCC(F)CC4)o3)cc12 [Example 1013, (R)-(5-(4-fluoropiperidin-1-yl)-1,3,4-oxadiazol-2-yl)(4-(4-methylpyrazolo[1,5-a]pyridin-2-yl)-6,7-dihydro-1H-imidazo[4,5-c]pyridin-5(4H)-yl)methanone]
13 | < 500 | O=C(c1nnc(N2CCC(F)CC2)o1)N1CCc2[nH]cnc2[C@H]1c1cc2c(F)cccn2n1 [Example 1014, (S)-(5-(4-fluoropiperidin-1-yl)-1,3,4-oxadiazol-2-yl)(4-(4-fluoropyrazolo[1,5-a]pyridin-2-yl)-6,7-dihydro-1H-imidazo[4,5-c]pyridin-5(4H)-yl)methanone]
14 | > 5000 | O=C(c1nnc(N2CCC(F)CC2)o1)N1CCc2[nH]cnc2[C@@H]1c1cc2c(F)cccn2n1 [Example 1015, (R)-(5-(4-fluoropiperidin-1-yl)-1,3,4-oxadiazol-2-yl)(4-(4-fluoropyrazolo[1,5-a]pyridin-2-yl)-6,7-dihydro-1H-imidazo[4,5-c]pyridin-5(4H)-yl)methanone]
15 | < 500 | Cc1cccn2nc([C@@H]3c4nc[nH]c4CCN3C(=O)c3nnc(-c4ccnn4C)o3)cc12 [Example 1016, (S)-(5-(1-methyl-1H-pyrazol-5-yl)-1,3,4-oxadiazol-2-yl)(4-(4-methylpyrazolo[1,5-a]pyridin-2-yl)-6,7-dihydro-1H-imidazo[4,5-c]pyridin-5(4H)-yl)methanone]
16 | > 5000 | Cc1cccn2nc([C@H]3c4nc[nH]c4CCN3C(=O)c3nnc(-c4ccnn4C)o3)cc12 [Example 1017, (R)-(5-(1-methyl-1H-pyrazol-5-yl)-1,3,4-oxadiazol-2-yl)(4-(4-methylpyrazolo[1,5-a]pyridin-2-yl)-6,7-dihydro-1H-imidazo[4,5-c]pyridin-5(4H)-yl)methanone]
17 | < 500 | Cn1nccc1-c1nnc(C(=O)N2CCc3[nH]cnc3[C@H]2c2cc3c(F)cccn3n2)o1 [Example 1018, (S)-(4-(4-fluoropyrazolo[1,5-a]pyridin-2-yl)-6,7-dihydro-1H-imidazo[4,5-c]pyridin-5(4H)-yl)(5-(1methyl-1H-pyrazol-5-yl)-1,3,4-oxadiazol-2-yl)methanone]
18 | > 5000 | Cn1nccc1-c1nnc(C(=O)N2CCc3[nH]cnc3[C@@H]2c2cc3c(F)cccn3n2)o1 [Example 1019, (R)-(4-(4-fluoropyrazolo[1,5-a]pyridin-2-yl)-6,7-dihydro-1H-imidazo[4,5-c]pyridin-5(4H)-yl)(5-(1-methyl-1H-pyrazol-5-yl)-1,3,4-oxadiazol-2-yl)methanone]
19 | < 500 | Cc1cccc2cc([C@@H]3c4nc[nH]c4CCN3C(=O)c3nnc(C(C)(C)C)o3)nn12 [Example 1020, (S)-(5-(tert-butyl)-1,3,4-oxadiazol-2-yl)(4-(7-methylpyrazolo[1,5-a]pyridin-2-yl)-6,7-dihydro-1H-imidazo[4,5-c]pyridin-5(4H)-yl)methanone]
20 | 1000 to 5000 | Cc1cccc2cc([C@H]3c4nc[nH]c4CCN3C(=O)c3nnc(C(C)(C)C)o3)nn12 [Example 1021, (R)-(5-(tert-butyl)-1,3,4-oxadiazol-2-yl)(4-(7-methylpyrazolo[1,5-a]pyridin-2-yl)-6,7-dihydro-1H-imidazo[4,5-c]pyridin-5(4H)-yl)methanone]
